Results as given in paper PMC9686568, “Novel Alligator Cathelicidin As-CATH8 Demonstrates Anti-Infective Activity against Clinically Relevant and Crocodylian Bacterial Pathogens” (Antibiotics, 2022).
Where two headings read alike, the source gives them in different places.

How the values were obtained:
[1] = system: S. aureus SAP0017 biofilms; experiment: Biofilm-killing assay; assay type: cell-based; details: S. aureus 24 h biofilms, 64 × MIC
Experimental: (§1) Biofilm-killing assays were set up like the biofilm inhibition assays previously described. […] Plates were incubated at 37 °C and bacterial biomass was scraped out of the wells with cotton swabs at 0, 0.5, 1, 2 and 20 h after treatment. Cotton tips were placed in 1 mL of LB and sonicated for 5 min, and bacterial numbers were determined by serial dilution and plating on LB agar.

[2] = system: S. aureus SAP0017 cytoplasmic membrane; experiment: Membrane depolarization (DiSC3(5)) and permeabilization (PI) assay with CFU enumeration; assay type: cell-based; details: S. aureus planktonic cells, 1 h treatment
E. faecium = experiment: MIC, broth microdilution in MHB; assay type: cell-based, E. faecium #1-1
Experimental: (§2) The following bacterial pathogens were used in this study: S. enterica subsp. enterica serovar Typhimurium ATCC 14028, E. coli O157:H7 [83], the clinical isolates S. aureus SAP0017 [84] and USA300 LAC [85], E. faecium #1-1 [85], A. baumannii Ab5075 [85] and E. cloacae 218R1 [85], as well as P. aeruginosa PAO1 [34], P. vulgaris HSC7200-T2 (Hancock Lab strain collection) and K. pneumoniae KPLN49 [85].
(§3) Overnight cultures were grown in LB at 37 °C with shaking at 250 rpm, except for E. faecium, which was grown in BHI medium.
(§4) The antimicrobial activity of the crocCATHs was evaluated with the broth microdilution method as described previously. MIC was defined as the first peptide or antibiotic concentration without visible bacterial growth. Reported values are the statistical mode of at least three independent experiments.

[3] = cited from earlier work
Text: It is well-known that HDPs can interact with multiple extracellular and intracellular targets to exert their antimicrobial and antibiofilm effects. […] Although it seems likely that compromising the integrity of the membrane is a key component of the killing mechanism of As-CATH8, this may not always be a fatal event and additional or alternative activities might also play a significant role. Two main elements support this idea: first, maxim ...

[4] = system: linearized plasmid pET28a; experiment: Agarose gel electrophoretic mobility shift assay (DNA binding)
Experimental: To investigate the DNA binding capacity of As-CATH8, vancomycin and polymyxin B, an agarose gel electrophoretic mobility shift assay was performed as previously described. Briefly, overnight cultures of E. coli BL21 Star cells harboring the pET28a plasmid were grown in LB supplemented with kanamycin (30 μg/mL). The pET28a plasmid was purified using the QIAprep Spin Miniprep Kit (QIAGEN Inc., Hilden, Germany) and linearized with the SmaI endonuclease (Thermofisher Scientific, Waltham, MA, USA). Linear pET28a was purified from an agarose gel using the QIAquick Gel Extraction Kit (QIAGEN Inc., Hilden, Germany).
Twofold decreasing amounts of As-CATH8 or antibiotics were incubated for 1 h at room temperature with 100 ng of linear pET28a in 10 μL of binding buffer (5% glycerol, 10 mM Tris-HCl pH 8.0, 1 mM EDTA, 1 mM DTT, 20 mM KCl and 50 μg/mL BSA). After this, 2 μL of 6× DNA Loading Dye (Thermofisher Scientific, Waltham, MA, USA) was added and the mixture was loaded onto a 1% agarose gel in TAE buffer containing SYBR Safe (Thermofisher Scientific, Waltham, MA, USA). The gel was run at 100 V for 1 h and the GeneRuler 1 kb DNA ladder (Thermofisher Scientific, Waltham, MA, USA) was used as a molecular weight marker. Finally, the gel was imaged on a ChemiDoc Touch Imaging System (BioRad Laboratories, Montreal, QC, Canada).

S. aureus = experiment: MIC, broth microdilution in MHB; assay type: cell-based
Experimental: as §2, §3, §4

S. Typhimurium = assay type: cell-based, S. enterica subsp. enterica serovar Typhimurium ATCC 14028; details: S. Typhimurium, microdilution in MHB
Experimental: as §2, §3, §4

A. baumannii biofilms = experiment: Biofilm-killing assay; assay type: cell-based; details: A. baumannii 24 h biofilms, 10% TSB + 0.1% glucose, 64 × MIC
Experimental: as §1

[5] = system: A. baumannii cytoplasmic membrane; experiment: Membrane depolarization (DiSC3(5)) and permeabilization (PI) assay with CFU enumeration; assay type: cell-based; details: A. baumannii planktonic cells, 1 h treatment
Experimental: The cytoplasmic membrane depolarization and permeabilization activities of As-CATH8 compared to those of antibiotics (vancomycin or polymyxin B) were assessed against S. aureus SAP0017 and A. baumannii using the membrane-potential sensitive dye DiSC3(5) and the cell viability dye PI [36]. The membrane-permeabilizing peptide mastoparan was included as a positive control and water served as a negative (untreated) control.
Briefly, after growth in LB, mid-log phase bacteria were centrifuged and washed twice with 5 mM HEPES buffer supplemented with 20 mM glucose (HEPES-Gluc). Cell density was adjusted to ~10^7 CFU/mL in (HEPES-Gluc) supplemented with 0.1 M KCl. […] After incubation, 190 μL/well of the cultures were added to black opaque 96-well plates (Corning Inc.) and pre-treatment fluorescence was monitored every 2 min for a total of 10 min using a Synergy H1 Hybrid Multi-Mode Reader (BioTek, Winooski, VT, USA). […] After assessing that fluorescence values remained stable, bacteria were treated with 10 μL/well of peptide, antibiotic or water. Fluorescence was quantified 1 h after treatment under the same conditions and represented as a function of peptide concentration, subtracting the background of untreated cells.
To assess bacterial survival after treatment, supernatants from the fluorescence assays were serial diluted and plated for CFU enumeration. […]

A. baumannii = experiment: MIC, broth microdilution in MHB; assay type: cell-based, A. baumannii Ab5075
Experimental: as §2, §3, §4

K. pneumoniae = experiment: MIC, broth microdilution in MHB; assay type: cell-based, K. pneumoniae KPLN49
Experimental: as §2, §3, §4

P. aeruginosa = experiment: MIC, broth microdilution in MHB; assay type: cell-based, P. aeruginosa PAO1
Experimental: as §2, §3, §4

P. vulgaris = assay type: cell-based, P. vulgaris HSC7200-T2; details: microdilution in MHB
Experimental: as §2, §3, §4

planktonic A. baumannii = experiment: Planktonic time-kill assay; assay type: cell-based; details: ~5 × 10^5 CFU/mL in MHB, at the MIC, 37 °C
Experimental: The bactericidal activity of As-CATH8 and antibiotics was evaluated against planktonic S. aureus SAP0017 and A. baumannii cells under similar conditions to those used in the antimicrobial assays. Bacteria were grown overnight in LB media and diluted to ~5 × 10^5 CFU/mL in MHB. […] Samples were taken at 0, 0.5, 1, 2 and 20 h after treatment and CFU counts determined by serial dilution and plating on LB agar.

E. coli = assay type: cell-based, E. coli O157:H7; details: microdilution in MHB
Experimental: as §2, §3, §4

E. cloacae = assay type: cell-based, E. cloacae 218R1; details: E. cloacae, microdilution in MHB
Experimental: as §2, §3, §4

[6] = first concentration without visible growth, mode of at least three independent experiments

CN[C@H](CC(C)C)C(=O)N[C@H]1C(=O)N[C@@H](CC(N)=O)C(=O)N[C@H]2C(=O)N[C@H]3C(=O)N[C@H](C(=O)N[C@H](C(=O)O)c4cc(O)cc(O)c4-c4cc3ccc4O)[C@H](O)c3ccc(c(Cl)c3)Oc3cc2cc(c3O[C@@H]2O[C@H](CO)[C@@H](O)[C@H](O)[C@H]2O[C@H]2C[C@](C)(N)[C@H](O)[C@H](C)O2)Oc2ccc(cc2Cl)[C@H]1O [Vancomycin, vancomycin]
Effect on biofilms at 2 h, result in words ([1]; 2 h time point): modest effect | Effect on biofilms after 20 h, result in words ([1]; 20 h of treatment): potent activity | Membrane depolarization (DiSC3(5) fluorescence) and permeabilization (PI fluorescence), result in words [2]: almost no effect | MIC (E. faecium; Enterococcus faecium, first concentration without visible growth, mode of at least three independent experiments): > 64 µM | MIC (E. faecium; Enterococcus faecium, value in brackets of Table S4): > 93 µg/mL | MIC (E. faecium; [6]): > 64 µM | Net charge [3]: +1 | Capacity for binding to DNA, result in words [4]: no | MIC (S. aureus; Staphylococcus aureus, first concentration without visible growth, mode of at least three independent experiments): 0.5 µM | MIC (S. aureus; Staphylococcus aureus, value in brackets of Table S4): 0.7 µg/mL | MIC (S. aureus; [6]): 0.5 µM

polymyxin B
MIC (S. Typhimurium; [6]): 1 µM | MIC (S. Typhimurium; value in brackets of Table S4): 1.2 µg/mL | Time to complete eradication of biofilms (A. baumannii biofilms): 20 h | Membrane depolarization (DiSC3(5) fluorescence) and permeabilization (PI fluorescence), result in words [5]: almost no effect | MIC (A. baumannii; [6]): 0.5 µM | MIC (A. baumannii; value in brackets of Table S4): 0.6 µg/mL | MIC (K. pneumoniae; [6]): 0.5 µM | MIC (K. pneumoniae; value in brackets of Table S4): 0.6 µg/mL | MIC (P. aeruginosa; [6]): 0.5 µM | MIC (P. aeruginosa; value in brackets of Table S4): 0.6 µg/mL | Net charge [3]: +5 | Capacity for binding to DNA, result in words [4]: weak | MIC (P. vulgaris; [6]): > 64 µM | MIC (P. vulgaris; value in brackets of Table S4): > 77 µg/mL | Time to complete killing of planktonic cells (planktonic A. baumannii): up to 20 h | MIC (E. coli; [6]): 0.5 µM | MIC (E. coli; value in brackets of Table S4): 0.6 µg/mL | MIC (E. cloacae; [6]): 0.5 µM | MIC (E. cloacae; value in brackets of Table S4): 0.6 µg/mL
